We go through 27 compounds from patent publication US20080114007A1 (priority 2006, published 2008).

For the assay, the target named is CSF-1R (Homo sapiens, UniProt P07333). Put plainly: Peptide (non-phosphorylated) assay, fluorescence polarization competition immunoassay. Format: biochemical. The conditions noted are these: 308 μM SYEGNSYTFIDPTQ peptide, 1 mM ATP, 80 min, mean of at least three determinations. The method in brief: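 Human CSF-1R kinase reaction started with ATP and run 80 min at room temperature, then stopped with EDTA. Phosphopeptide detected by fluorescence polarization competition using anti-phosphotyrosine antibody and PTK green tracer after 30 min. Controls used 4% DMSO, with EDTA added before reaction start for positive controls.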
CSF-1R, sequence (P07333 20-972): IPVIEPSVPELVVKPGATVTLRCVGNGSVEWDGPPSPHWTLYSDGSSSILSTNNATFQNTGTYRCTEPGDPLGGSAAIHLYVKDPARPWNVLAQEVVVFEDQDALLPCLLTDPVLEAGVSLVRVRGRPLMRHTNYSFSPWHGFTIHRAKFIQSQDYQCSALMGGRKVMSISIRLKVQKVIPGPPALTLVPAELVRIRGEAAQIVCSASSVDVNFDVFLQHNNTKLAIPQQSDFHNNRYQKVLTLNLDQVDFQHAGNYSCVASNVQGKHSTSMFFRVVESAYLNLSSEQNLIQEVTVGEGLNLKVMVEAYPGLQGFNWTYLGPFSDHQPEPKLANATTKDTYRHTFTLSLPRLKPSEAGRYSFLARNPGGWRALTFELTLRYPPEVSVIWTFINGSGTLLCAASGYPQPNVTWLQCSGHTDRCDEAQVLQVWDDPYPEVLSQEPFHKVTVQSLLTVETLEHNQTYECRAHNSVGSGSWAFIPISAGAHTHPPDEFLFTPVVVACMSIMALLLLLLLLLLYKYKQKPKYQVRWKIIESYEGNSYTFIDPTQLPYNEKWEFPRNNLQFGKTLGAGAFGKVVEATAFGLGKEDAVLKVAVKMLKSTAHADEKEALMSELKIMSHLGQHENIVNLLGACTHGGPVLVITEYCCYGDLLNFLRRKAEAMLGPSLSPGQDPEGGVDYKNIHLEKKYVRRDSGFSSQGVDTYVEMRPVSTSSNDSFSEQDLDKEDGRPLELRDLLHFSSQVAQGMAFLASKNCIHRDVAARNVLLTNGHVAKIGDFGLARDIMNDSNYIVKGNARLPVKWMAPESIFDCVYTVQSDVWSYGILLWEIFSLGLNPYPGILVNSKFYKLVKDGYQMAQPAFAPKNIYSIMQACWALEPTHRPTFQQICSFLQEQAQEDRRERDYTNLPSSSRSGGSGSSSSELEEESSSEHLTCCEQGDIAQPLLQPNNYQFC

[1] abbreviates: 0.7 nM CSF-1R, read-out: c-fms Peptide IC50.

Where two headings read alike, the source gives them in different places.

In general, IC50 refers to the midpoint of a concentration-inhibition curve. With `CC(C)ONC(=O)c1cn(-c2ccc3c(c2)CCC3)c2nc(Nc3ccc(CCN4CCCC4)cc3)ncc2c1=O` [Cpd 133, 8-indan-5-yl-5-oxo-2-[4-(2-pyrrolidin-1-yl-ethyl)-phenylamino]-5,8-dihydro-pyrido[2,3-d]pyrimidine-6-carboxylic acid isopropoxy-amide], the IC50 under setting [1] came out at 1.2 nM.

`CONC(=O)c1cn(-c2ccc3c(c2)CCC3)c2nc(Nc3ccc(CCN4CCCC4=O)cc3)ncc2c1=O` [Cpd 134, 8-indan-5-yl-5-oxo-2-{4-[2-(2-oxo-pyrrolidin-1-yl)-ethyl]-phenylamino}-5,8-dihydro-pyrido[2,3-d]pyrimidine-6-carboxylic acid methoxy-amide]: under setting [1], the IC50 came out at 6.8 nM.

On to `CCONC(=O)c1cn(-c2ccc3c(c2)CCC3)c2nc(Nc3ccc(CCN4CCCC4=O)cc3)ncc2c1=O` [Cpd 135, 8-indan-5-yl-5-oxo-2-{4-[2-(2-oxo-pyrrolidin-1-yl)-ethyl]-phenylamino}-5,8-dihydro-pyrido[2,3-d]pyrimidine-6-carboxylic acid ethoxy-amide], for which, under setting [1], the IC50 was 66 nM.

On to `CCONC(=O)c1cn(-c2ccc3c(c2)CCC3)c2nc(Nc3ccc(S(=O)(=O)N(C)C)cc3)ncc2c1=O` [Cpd 136, 2-(4-dimethylsulfamoyl-phenylamino)-8-indan-5-yl-5-oxo-5,8-dihydro-pyrido[2,3-d]pyrimidine-6-carboxylic acid ethoxy-amide], for which the half-inhibitory concentration (IC50) under setting [1] came out at 4.2 nM.

Consider `CC(C)ONC(=O)c1cn(-c2ccc3c(c2)CCC3)c2nc(Nc3ccc(S(=O)(=O)N(C)C)cc3)ncc2c1=O` [Cpd 137, 2-(4-dimethylsulfamoyl-phenylamino)-8-indan-5-yl-5-oxo-5,8-dihydro-pyrido[2,3-d]pyrimidine-6-carboxylic acid isopropoxy-amide], for which, under setting [1], the IC50 was found to be 16 nM.

For `CCONC(=O)c1cn(-c2ccc3c(c2)CCC3)c2nc(Nc3ccc(C4CCN(C)CC4)cc3)ncc2c1=O` [Cpd 139, 8-indan-5-yl-2-[4-(1-methyl-piperidin-4-yl)-phenylamino]-5-oxo-5,8-dihydro-pyrido[2,3-d]pyrimidine-6-carboxylic acid ethoxy-amide], the IC50 under setting [1] came to 1 nM.

As to `CONC(=O)c1cn(C2CCCCC2)c2nc(Nc3ccc(C4CCN(C)CC4)cc3)ncc2c1=O` [Cpd 140, 8-cyclohexyl-2-[4-(1-methyl-piperidin-4-yl)-phenylamino]-5-oxo-5,8-dihydro-pyrido[2,3-d]pyrimidine-6-carboxylic acid methoxy-amide], under setting [1], the IC50 is 4.8 nM.

As for `CCONC(=O)c1cn(C2CCCCC2)c2nc(Nc3ccc(C4CCN(C)CC4)cc3)ncc2c1=O` [Cpd 141, 8-cyclohexyl-2-[4-(1-methyl-piperidin-4-yl)-phenylamino]-5-oxo-5,8-dihydro-pyrido[2,3-d]pyrimidine-6-carboxylic acid ethoxy-amide], the IC50 under setting [1] came out at 1.3 nM.

Consider `CCONC(=O)c1cn(C2CC2)c2nc(Nc3ccc(CCN4CCCC4)cc3)ncc2c1=O` [Cpd 142, 8-cyclopropyl-5-oxo-2-[4-(2-pyrrolidin-1-yl-ethyl)-phenylamino]-5,8-dihydro-pyrido[2,3-d]pyrimidine-6-carboxylic acid ethoxy-amide], for which the IC50 under setting [1] is 66 nM.

For `CC(C)ONC(=O)c1cn(C2CC2)c2nc(Nc3ccc(CCN4CCCC4)cc3)ncc2c1=O` [Cpd 143, 8-cyclopropyl-5-oxo-2-[4-(2-pyrrolidin-1-yl-ethyl)-phenylamino]-5,8-dihydro-pyrido[2,3-d]pyrimidine-6-carboxylic acid isopropoxy-amide], under setting [1], the IC50 turned out to be 130 nM.

`CONC(=O)c1cn(-c2ccc3c(c2)CCC3)c2nc(Nc3ccc(CCN4CCNCC4)cc3)ncc2c1=O` [Cpd 144, 8-indan-5-yl-5-oxo-2-[4-(2-piperazin-1-yl-ethyl)-phenylamino]-5,8-dihydro-pyrido[2,3-d]pyrimidine-6-carboxylic acid methoxy-amide]: the IC50 under setting [1] came out at 0.4 nM.

For `CONC(=O)c1cn(-c2ccc3c(c2)CCC3)c2nc(Nc3ccc(CCN4CCN(C(C)=O)CC4)cc3)ncc2c1=O` [Cpd 145, 2-{4-[2-(4-acetyl-piperazin-1-yl)-ethyl]-phenylamino}-8-indan-5-yl-5-oxo-5,8-dihydro-pyrido[2,3-d]pyrimidine-6-carboxylic acid methoxy-amide], the IC50 under setting [1] is 1.2 nM.

As for `CONC(=O)c1cn(-c2ccc3c(c2)CCC3)c2nc(Nc3ccc(CCN4CCN(S(C)(=O)=O)CC4)cc3)ncc2c1=O` [Cpd 146, 8-indan-5-yl-2-{4-[2-(4-methanesulfonyl-piperazin-1-yl)-ethyl]-phenylamino}-5-oxo-5,8-dihydro-pyrido[2,3-d]pyrimidine-6-carboxylic acid methoxy-amide], the IC50 under setting [1] was found to be 1.2 nM.

For `CONC(=O)c1cn(-c2ccc3c(c2)CCC3)c2nc(Nc3ccc(CCN4CCN(CC(=O)O)CC4)cc3)ncc2c1=O` [Cpd 147, (4-{2-[4-(8-indan-5-yl-6-methoxycarbamoyl-5-oxo-5,8-dihydro-pyrido[2,3-d]pyrimidin-2-ylamino)-phenyl]-ethyl}-piperazin-1-yl)-acetic acid], the IC50 under setting [1] was 0.94 nM.

In the case of `CONC(=O)c1cn(-c2ccc3c(c2)CCC3)c2nc(Nc3ccc(CCN4CCN(C(=O)C(F)(F)F)CC4)cc3)ncc2c1=O` [Cpd 148, 8-indan-5-yl-5-oxo-2-(4-{2-[4-(2,2,2-trifluoro-acetyl)-piperazin-1-yl]-ethyl}-phenylamino)-5,8-dihydro-pyrido[2,3-d]pyrimidine-6-carboxylic acid methoxy-amide], the IC50 under setting [1] is 1.2 nM.

Turning to `CONC(=O)c1cn(-c2ccc3c(c2)CCC3)c2nc(Nc3ccc(CCN4CCN(CC(F)(F)F)CC4)cc3)ncc2c1=O` [Cpd 149, 8-indan-5-yl-5-oxo-2-(4-{2-[4-(2,2,2-trifluoro-ethyl)-piperazin-1-yl]-ethyl}-phenylamino)-5,8-dihydro-pyrido[2,3-d]pyrimidine-6-carboxylic acid methoxy-amide], the IC50 under setting [1] turned out to be 2.6 nM.

In the case of `CONC(=O)c1cn(-c2ccc3c(c2)CCC3)c2nc(Nc3ccc(CCN4CCN(C(=O)OC)CC4)cc3)ncc2c1=O` [Cpd 150, 4-{2-[4-(8-indan-5-yl-6-methoxycarbamoyl-5-oxo-5,8-dihydro-pyrido[2,3-d]pyrimidin-2-ylamino)-phenyl]-ethyl}-piperazine-1-carboxylic acid methyl ester], the IC50 under setting [1] is 0.75 nM.

`CONC(=O)c1cn(-c2ccc3c(c2)CCC3)c2nc(Nc3ccc(CCCN4CCN(C)CC4)cc3)ncc2c1=O` [Cpd 151, 8-indan-5-yl-2-{4-[3-(4-methylpiperazin-1-yl)-propyl]-phenylamino}-5-oxo-5,8-dihydro-pyrido[2,3-d]pyrimidine-6-carboxylic acid methoxy-amide]: under setting [1], the IC50 was found to be 1.5 nM.

In the case of `CONC(=O)c1cn(-c2ccc3c(c2)CCC3)c2nc(Nc3ccc(CC(=O)N4CCN(C)CC4)cc3)ncc2c1=O` [Cpd 152, 8-indan-5-yl-2-{4-[2-(4-methylpiperazin-1-yl)-2-oxo-ethyl]-phenylamino}-5-oxo-5,8-dihydro-pyrido[2,3-d]pyrimidine-6-carboxylic acid methoxy-amide], under setting [1], the IC50 amounted to 1.5 nM.

As to `CONC(=O)c1cn(-c2ccc3c(c2)CCC3)c2nc(Nc3ccc(CCC(=O)NS(C)(=O)=O)cc3)ncc2c1=O` [Cpd 153, 8-indan-5-yl-2-[4-(3-methanesulfonylamino-3-oxo-propyl)-phenylamino]-5-oxo-5,8-dihydro-pyrido[2,3-d]pyrimidine-6-carboxylic acid methoxy-amide], the IC50 under setting [1] was determined as 3.2 nM.

In the case of `CONC(=O)c1cn(-c2ccc3c(c2)CCC3)c2nc(Nc3ccc(S(=O)(=O)N4CCN(C)CC4)cc3)ncc2c1=O` [Cpd 154, 8-indan-5-yl-2-[4-(4-methyl-piperazine-1-sulfonyl)-phenylamino]-5-oxo-5,8-dihydro-pyrido[2,3-d]pyrimidine-6-carboxylic acid methoxy-amide], the IC50 under setting [1] stood at 7.3 nM.

In the case of `CCN1CCC(c2ccc(Nc3ncc4c(=O)c(C(=O)NOC)cn(-c5ccc6c(c5)CCC6)c4n3)cc2)CC1` [Cpd 155, 2-[4-(1-ethyl-piperidin-4-yl)-phenylamino]-8-indan-5-yl-5-oxo-5,8-dihydro-pyrido[2,3-d]pyrimidine-6-carboxylic acid methoxy-amide], the IC50 under setting [1] was 0.12 nM.

With `CCc1ccc(-n2cc(C(=O)NOC)c(=O)c3cnc(Nc4ccc(C5CCN(C)CC5)cc4)nc32)cc1` [Cpd 156, 8-(4-ethyl-phenyl)-2-[4-(1-methyl-piperidin-4-yl)-phenylamino]-5-oxo-5,8-dihydro-pyrido[2,3-d]pyrimidine-6-carboxylic acid methoxy-amide], the IC50 (c-fms Peptide IC50, 0.7 nM CSF-1R) was determined as 0.3 nM.

Regarding `CCc1ccc(-n2cc(C(=O)NOC)c(=O)c3cnc(Nc4ccc(C5CCN(CC)CC5)cc4)nc32)cc1` [Cpd 157, 8-(4-ethyl-phenyl)-2-[4-(1-ethyl-piperidin-4-yl)-phenylamino]-5-oxo-5,8-dihydro-pyrido[2,3-d]pyrimidine-6-carboxylic acid methoxy-amide], the IC50 under setting [1] amounted to 0.4 nM.

With `CONC(=O)c1cn(-c2ccc(OC(F)(F)F)cc2)c2nc(Nc3ccc(C4CCN(C)CC4)cc3)ncc2c1=O` [Cpd 159, 2-[4-(1-methylpiperidin-4-yl)-phenylamino]-5-oxo-8-(4-trifluoromethoxyphenyl)-5,8-dihydropyrido[2,3-d]pyrimidine-6-carboxylic acid methoxy-amide], the IC50 under setting [1] was determined as 0.66 nM.

For `CONC(=O)c1cn(-c2ccc(OC(F)(F)F)cc2)c2nc(Nc3ccc(C4CCN(CCO)CC4)cc3)ncc2c1=O` [Cpd 162, 2-{4-[1-(2-hydroxyethyl)-piperidin-4-yl]-phenylamino}-5-oxo-8-(4-trifluoromethoxy-phenyl)-5,8-dihydropyrido[2,3-d]pyrimidine-6-carboxylic acid methoxy-amide], under setting [1], the IC50 amounted to 2.1 nM.

As for `CONC(=O)c1cn(-c2ccc3c(c2)CCC3)c2nc(Nc3ccc(CCn4ccnc4)cc3)ncc2c1=O` [Cpd 171, 2-[4-(2-imidazol-1-yl-ethyl)-phenylamino]-8-indan-5-yl-5-oxo-5,8-dihydro-pyrido[2,3-d]pyrimidine-6-carboxylic acid methoxy-amide], the IC50 under setting [1] came out at 0.76 nM.
